This is an account of results in patent US9084779B2, “Conjugates of nitroimidazoles and their use as chemotherapeutic agents” (The Johns Hopkins University, priority 2011, dated 2015).

Each structure is given as a SMILES string. ≈ marks a conversion by molar mass, not a printed value.

Data set [1] deals with Hep3B human hepatocellular carcinoma cells. The experiment in a line: MTS tetrazolium cell proliferation assay, 72-h exposure. The data set is classed as cell-based. The settings on record: normoxic (21% O2), read-out: IC50 Normoxic (N). An excerpt:
Anti-proliferative assay. The human hepatocellular carcinoma cell line Hep3B was purchased from American Type culture Collection (ATCC, Manassas, Va.). Dulbecco's Modified Eagle Medium (DMEM) and penicillin/streptomycin (P/S) were obtained from GIBCO Invitrogen. Fetal Bovine serum (FBS) was obtained from Thermo Scientific Hyclone. Dimethyl sulfoxide (DMSO-Hybri-Max) was purchased from Sigma-Aldrich Co. and the CellTiter 96 AQueous One Solution Cell Proliferation Assay (MTS) was acquired from Promega Corp. Hep3B cells were maintained in DMEM supplemented with 10% FBS and 1× P/S solution. Cultures were incubated at 37° C. in a 5% CO2 atmosphere with 99% humidity. Stock solutions of test compounds were prepared in DMSO for use in the cell culture viability assays.
MTS tetrazolium cell proliferation assay. The viability of Hep3B cells exposed to the synthesized compounds was determined by the MTS assay. Briefly, Hep3B cells were plated in 96-well plates at a density of 3.0×10^3 cells/well and incubated for 24-h before treatment. At the initiation of treatment, the growth media was replaced with 200 μL of media containing increasing concentrations of the test compounds in triplicate wells. The final DMSO concentration in the media was 1.0% including the media added to the control wells minus the test compound. After a 72-hour incubation, 40 μL of MTS solution was added to each well and the plates were incubated for an additional 3.0 hours. The plates were then read at 490 nm on a Biotek Instruments PowerWave 200 microplate reader. For each experiment the percent growth inhibition relative to the control (no drug addition) was calculated and a dose inhibition curve was generated. The concentration of drug required to inhibit cell growth by 50% (IC50) compared to the control cells was then determined by non-linear regression using PSI-Plot software (Poly Software International).
Antiproliferative activity. The anti-cancer activities of the parent compounds 3 and 8 and the conjugated compounds 7a-d and 10a-d were tested against Hep3B human hepatocellular carcinoma cells in culture.

The nature of data set [2]: Determination of water solubility by UV absorbance of a saturated solution. Particulars: for Increment (solubility): PEG tether compound in comparison with the —CH2CH2— tether compound of the same pair (7c/7a, 7d/7b, 10c/10a, 10d/10b); for solubility at 1 h: thermodynamic from solid, water, saturated solution, sonicated at 25° C., stirred at room temperature 1.0 h, filtered. The data set is classed as physicochemical. As for the experimental part: The aqueous solubility of all eight compounds was assessed by using a technique involving measurement of their UV absorbance^29.
Determination of Water Solubility of Compounds 7a-d and 10a-d. A saturated solution was prepared by addition of a test compound (7a-d and 10a-d; ca. 1.00 mg) to water (1.00 mL), which was sonicated at 25° C. for 5.0 min and stirring at room temperature for an additional 1.0 h. After filtration with Millipore filters (0.45-μm-pore-size polyvinylidene fluoride), the supernatant was analyzed by UV spectroscopy with concentration determined from absorbance, standardized against calibration data. Standard curves for each compound were obtained by plotting absorbance against concentration. The concentration range of the standard solutions was 1.0-10 μg/mL. For all standards, their curves were linear with γ>0.996.

The test system of data set [3] is Hep3B human hepatocellular carcinoma cells. The experiment in a line: Hypoxia targeting assay, 5-h exposure then 5 days growth, MTS. The data set is classed as cell-based. Particulars: for Ratio IC50 (N)/IC50 (H): normoxic versus hypoxic. As to the method:
Hypoxia targeting assay. Hep3B cells, plated in 96-well plates at a density of 3.0×10^3 cells/well, were incubated overnight and then treated with the test compounds for 5.0 hours at under hypoxic (1% O2) or normoxic (21% O2) conditions. Exposure of cells to hypoxia was carried out in a PROOX C-Chamber with O2 and CO2 levels modulated by a PROOX Model C21 Controller (BioSpherix). At the end of the treatment period, the wells were washed with phosphate buffered saline (PBS) and fresh compound-free media was added. The cells were cultured for an additional 5 days under normoxic conditions and then assayed for cell proliferation using the MTS assay.
Hypoxia targeting. Nitroimidazoles are converted to reactive compounds in hypoxic cells. Therefore it is of importance to compare the antiproliferative activities of the nitroimidazole conjugated compounds against Hep3B cells under normoxic and hypoxic conditions. In these experiments, Hep3B cells in culture were treated with each of the conjugated compounds 7c-d, 10c-d, or the parent compounds 3 or 8 for a 5.0-hour period under normoxic (21% O2) or hypoxic (1.0% O2) conditions. After treatment, the cells were returned to normal conditions and assayed for proliferation after 5 days of additional growth. […] The ratio between the IC50 values for each drug under normoxic versus hypoxic culture conditions was computed and used as a measure of the relative increase in potency.

In data set [4] the test system is LNCaP human prostate cancer cells. The data set is described as follows: Western blot analysis of 2-nitroimidazole induced protein adducts in cell culture. The data set is classed as cell-based. Particulars: 80 μM, 6 hours normoxic then 6 hours hypoxic or normoxic. As to the method: Western blot analysis of 2-nitroimidazole induced protein adducts in LNCaP cell cultures. Exponentially growing LNCaP human prostate cancer cells were treated with DMSO, 80 μM M3N-PEG-2NI or Hypoxyprobe-1 in standard media for 6 hours under normoxic conditions and then under hypoxic or normoxic conditions for additional 6 hours. Afterward the media was aspirated, the cells washed and ice cold RIPA lysis buffer was added and the cells lysed on ice for 15 minutes. The samples were centrifuged and the lysate collected. Cellular proteins in the extracts were analyzed for the presence of protein adducts using standard western blotting technique. The primary antibody was PAb2627 polyclonal antibody (1:200) directed against Hydroxyprobe-1 protein adducts. The secondary antibody was Anti-Rabbit HRP conjugate (1:2000). Detection was by chemiluminescence
Background: A western blot detects proteins with antibodies after separation by electrophoresis.

The subject of data set [5] is subcutaneous LNCaP prostate cancer cell explants. The data set is described as follows: Immunofluorescence analysis of 2-nitroimidazole induced protein adducts in mouse tumor explants. The data set is classed as in vivo, nude mice. Particulars: daily intravenous tail vein injection for three weeks. As to the method:
Immunofluorescence analysis of 2-nitroimidazole induced protein adducts in mouse tumor explants. Nude mice with subcutaneous LNCaP prostate cancer cell explants were administered Hydroxyprobe-1, M3N or M3N-PEG-2NI for three weeks by daily intravenous tail vein injection with an additional injection 3 hours prior to euthanization. Tumors were removed from the euthanized mice by dissection and incubated in 30% sucrose/PBS overnight at 4° C. Excess sucrose was removed and the tissue was incubated in 30% sucrose/PBS:OCT (1:1) for 1 hour at room temperature. Afterward the tissue was frozen in 100% OCT. Frozen sections of […] were prepared and fixed in 4% PFA/PBS for 1 hour at room temperature. The sections were blocked overnight at 4° C. with 5% goat serum/PBS or at room temperature for 1 hour and then incubated with Hydroxyprobe-1 rabbit antiserum (1:200) overnight at 4° C. After three washes with PBS, the secondary antibody, mouse anti rabbit-FITC (1:1000) was added for 1 hour at room temperature. The sections were mounted using Vectashield and fluorescently imaged.

Setting [6] is: Homo sapiens, hypoxic (1.0% O2), then 5 days normoxic growth, read-out: IC50 Hypoxic (H).
The mark [7] stands for this setting: Homo sapiens, normoxic (21% O2), then 5 days growth, read-out: IC50 Normoxic (N).
Where [8] appears, read: hypoxic (1.0% O2), then 5 days normoxic growth, read-out: IC50 Hypoxic (H).

One may read the IC50 as the concentration at which inhibition is half-maximal. A word on the solubility: it is how much of the substance goes into solution per volume. In the case of `COc1ccc(C[C@H](C)[C@H](C)Cc2ccc(OC)c(OCCn3ccnc3[N+](=O)[O-])c2)cc1OC` (racemic) [Compound 7b, (±)-(2R,3S)-4-(3,4-Dimethoxyphenyl)-1-[4-methoxy-3-[2-(2-nitro-1H-imidazol-1-yl)ethoxy]phenyl]-2,3-dimethylbutane], in data set [1], the IC50 was found to be 21.8 ± 4.5 µM. For the same molecule, in data set [2], the “Increment (solubility)” value came to 8.1 fold and the concentration in solution (solubility at 1 h) was 1.64 µg/mL (≈ 3.39 µM).

For `COc1ccc(C[C@H](C)[C@H](C)Cc2ccc(OCCOCCOCCOCCn3cnc([N+](=O)[O-])c3)c(OC)c2)cc1OC` (racemic) [Compound 10c, (±)-(2R,3S)-4-(3,4-Dimethoxyphenyl)-1-[3-methoxy-4-[12-(4-nitro-1H-imidazol-1-yl)-1,4,7,10-tetraoxadodecanyl]phenyl]-2,3-dimethylbutane], the values for the IC50 in data set [1], in data set [3] (setting [6]) and in data set [3] (setting [7]) were 12.5 ± 4.1 µM, 52.1 ± 3.8 µM and 140 ± 33.5 µM, respectively. Moreover, the “Ratio IC50 (N)/IC50 (H)” value in data set [3] is recorded as 2.69. This molecule also returned a solubility at 1 h in data set [2] of 10.5 µg/mL (≈ 17.1 µM).

As to `COc1ccc(C[C@H](C)[C@H](C)Cc2ccc(OCCOCCOCCOCCn3ccnc3[N+](=O)[O-])c(OC)c2)cc1OC` (racemic) [Compound 10d, (±)-(2R,3S)-4-(3,4-Dimethoxyphenyl)-1-[3-methoxy-4-[12-(2-nitro-1H-imidazol-1-yl)-1,4,7,10-tetraoxadodecanyl]phenyl]-2,3-dimethylbutane], the IC50 in data set [1] is 13.4 ± 3.4 µM; in data set [3] (setting [6]), 49.1 ± 4.9 µM; in data set [3] (setting [7]), 119 ± 42.8 µM. For the same molecule, in data set [3], the “Ratio IC50 (N)/IC50 (H)” value is on record as 2.42. The molecule further displayed a solubility at 1 h in data set [2] of 19.1 µg/mL (≈ 31.1 µM).

As for `COc1ccc(C[C@H](C)[C@H](C)Cc2ccc(OC)c(OCCn3cnc([N+](=O)[O-])c3)c2)cc1OC` (racemic) [Compound 7a, (±)-(2R,3S)-4-(3,4-Dimethoxyphenyl)-1-[4-methoxy-3-[2-(4-nitro-1H-imidazol-1-yl)ethoxy]phenyl]-2,3-dimethylbutane], in data set [1], the 50% inhibitory concentration (IC50) was 15.8 ± 1.6 µM. Further, in data set [2], the “Increment (solubility)” value was 10.5 fold and the solubility at 1 h turned out to be 1.76 µg/mL (≈ 3.64 µM).

Turning to `Cl.O=[N+]([O-])c1nccn1CC(O)CN1CCCCC1` (stereo not drawn) [Hydroxyprobe-1], the “Protein adducts by western blot (PAb2627 antibody)” value in data set [4] is “showed evidence of protein adducts”. Moreover, in data set [5], the “Protein adducts in tumor sections by immunofluorescence” value is on record as “Protein-adducts were also found”.

In the case of `COc1ccc(C[C@H](C)[C@H](C)Cc2ccc(OCCn3cnc([N+](=O)[O-])c3)c(OC)c2)cc1OC` (racemic) [Compound 10a, (±)-(2R,3S)-4-(3,4-Dimethoxyphenyl)-1-[3-methoxy-4-[2-(4-nitro-1H-imidazol-1-yl)ethoxy]phenyl]-2,3-dimethylbutane], the IC50 in data set [1] was determined as 18.7 ± 4.1 µM. Besides, in data set [2], the “Increment (solubility)” value is recorded as 6.5 fold and the concentration in solution (solubility at 1 h) was 1.63 µg/mL (≈ 3.37 µM).

On to `COc1ccc(C[C@H](C)[C@H](C)Cc2ccc(OCCn3ccnc3[N+](=O)[O-])c(OC)c2)cc1OC` (racemic) [Compound 10b, (±)-(2R,3S)-4-(3,4-Dimethoxyphenyl)-1-[3-methoxy-4-[2-(2-nitro-1H-imidazol-1-yl)ethoxy]phenyl]-2,3-dimethylbutane], for which the IC50 in data set [1] is 24.8 ± 8.7 µM. In addition, in data set [2], the “Increment (solubility)” value came to 11.2 fold and the solubility at 1 h stood at 1.7 µg/mL (≈ 3.52 µM).

As to `COc1ccc(CC(C)C(C)Cc2ccc(OC)c(OC)c2)cc1O` (stereo not drawn) [Compound 3, trimethyl NDGA, reference compound], in data set [3] (setting [8]), the IC50 stood at 99 ± 0.6 µM. In data set [3], the “Ratio IC50 (N)/IC50 (H)” value was 1.58.

Turning to `COc1ccc(C[C@H](C)[C@H](C)Cc2ccc(OC)c(OCCOCCOCCOCCn3cnc([N+](=O)[O-])c3)c2)cc1OC` (racemic) [Compound 7c, (±)-(2R,3S)-4-(3,4-Dimethoxyphenyl)-1-[4-methoxy-3-[12-(4-nitro-1H-imidazol-1-yl)-1,4,7,10-tetraoxadodecanyl]phenyl]-2,3-dimethylbutane], the IC50 in data set [1] was 13 ± 5.1 µM; in data set [3] (setting [6]) it was 64.3 ± 15.1 µM; in data set [3] (setting [7]) it was 104 ± 17.6 µM. For the same molecule, the “Ratio IC50 (N)/IC50 (H)” value in data set [3] came to 1.62. In data set [2], this molecule came in with a solubility at 1 h of 18.5 µg/mL (≈ 30.1 µM).

Regarding `COc1ccc(CC(C)C(C)Cc2ccc(OC)c(OC)c2)cc1O` (stereo not drawn) [Compound 8, trimethyl NDGA, reference compound], the IC50 in data set [3] (setting [8]) is 87.6 ± 8.7 µM. Also, the “Ratio IC50 (N)/IC50 (H)” value in data set [3] was 1.28.
